The structures appear in SMILES notation.

Sequence of Human CD38 (P28907 whole entry): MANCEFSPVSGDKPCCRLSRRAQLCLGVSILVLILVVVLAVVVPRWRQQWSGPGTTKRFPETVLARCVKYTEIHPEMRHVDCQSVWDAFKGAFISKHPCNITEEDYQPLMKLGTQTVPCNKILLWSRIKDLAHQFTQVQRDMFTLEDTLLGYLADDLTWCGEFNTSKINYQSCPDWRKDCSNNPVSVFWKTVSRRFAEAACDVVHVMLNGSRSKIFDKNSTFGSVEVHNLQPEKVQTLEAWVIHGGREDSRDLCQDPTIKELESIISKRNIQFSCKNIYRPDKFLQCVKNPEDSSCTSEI

For the test, the target named is Human CD38 (Homo sapiens (Human), UniProt P28907). Put plainly: CD38 enzyme assay. Format: biochemical. As to conditions: 2 nM CD38, NAD+ substrate, absorbance at 405 nm. An outline of the steps:
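IC50 values come from fitting % inhibition against compound concentration with a 4-parameter logistic, or a 3-parameter fit with top/bottom fixed at 100/0 or Hill at 1. Inhibition is scaled between DMSO wells and positive-control wells treated with a quinolinone CD38 inhibitor.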
A word on the IC50: it is the point on the concentration scale where inhibition reaches its midpoint. A higher IC50 goes with weaker potency. `COCCOc1ncc(NC(=O)c2nc(-n3ccnc3)nc3cc[nH]c23)cn1` [Example 165] came in with an IC50 of 10 to 100 nM. Compound `N#C[C@H]1CC[C@H](CNC(=O)c2nc(-n3ccnc3)nc3cc[nH]c23)CC1` [Example 166] showed an IC50 of 10 to 100 nM. The figure for `O=C(N[C@H]1CC[C@H](OC(F)(F)F)CC1)c1nc(-n2ccnc2)nc2cc[nH]c12` [Example 167] is 10 to 100 nM. The same measure for `O=C(N[C@H]1CC[C@H](F)CC1)c1nc(-n2ccnc2)nc2cc[nH]c12` [Example 168]: 10 to 100 nM; for `O=C(N[C@H]1CC[C@@H](N2CCOCC2)CC1)c1nc(-n2ccnc2)nc2cc[nH]c12` [Example 169]: 100 to 1000 nM; for `CNC(=O)[C@H]1CC[C@H](NC(=O)c2nc(-n3ccnc3)nc3cc[nH]c23)CC1` [Example 170]: 10 to 100 nM. The same measure for `O=C(N[C@H]1CC[C@H](C(F)(F)F)CC1)c1nc(-n2ccnc2)cc2cn[nH]c12` [Example 171]: below 10 nM; for `CC(=O)N1CC2CC1CC2NC(=O)c1nc(-n2ccnc2)nc2cc[nH]c12` (centres unmarked) [Example 172]: 10 to 100 nM; for `Cc1cc2nc(-n3ccnc3)nc(C(=O)NC3CCC(F)(F)CC3)c2[nH]1` [Example 173]: below 10 nM.

Regarding `O=C(N[C@H]1CC[C@H](CO)CC1)c1nc(-n2ccnc2)nc2cc[nH]c12` [Example 174], the concentration for half-maximal inhibition (IC50) was below 10 nM. The same measure for `C[C@]1(O)CC[C@@H](NC(=O)c2nc(-n3ccnc3)nc3cc[nH]c23)CC1` [Example 175]: below 10 nM. The same measure for `C[C@]1(O)CC[C@H](NC(=O)c2nc(-n3ccnc3)nc3cc[nH]c23)CC1` [Example 176]: 10 to 100 nM. The figure for `O=C(N[C@H]1CC[C@H](O)CC1)c1nc(-n2ccnc2)nc2cc[nH]c12` [Example 177] is below 10 nM; for `O=C(N[C@H]1CC[C@H](N2CCCS2(=O)=O)CC1)c1nc(-n2ccnc2)nc2cc[nH]c12` [Example 178] it is 10 to 100 nM. Turning to `COCCN1CCc2cc(NC(=O)c3nc(-n4ccnc4)nc4cc[nH]c34)ccc2C1` [Example 179], the IC50 fell in the range of 10 to 100 nM. On to `O=C(N[C@H]1CC[C@H](NCCC(F)F)CC1)c1nc(-n2ccnc2)nc2cc[nH]c12` [Example 180], for which the IC50 lay within 10 to 100 nM.

`O=C(N[C@H]1CC[C@@H](NCCC(F)F)CC1)c1nc(-n2ccnc2)nc2cc[nH]c12` [Example 181] gave an IC50 of 100 to 1000 nM. As to `CC(C)(O)[C@H]1CC[C@H](NC(=O)c2nc(-n3ccnc3)nc3cn[nH]c23)CC1` [Example 182, N-((1r,4r)-4-(2-hydroxypropan-2-yl)cyclohexyl)-5-(1H-imidazol-1-yl)-1H-pyrazolo[4,3-d]pyrimidine-7-carboxamide], the IC50 is below 10 nM. The same measure for `CO[C@H]1CC[C@H](NC(=O)c2nc(-n3ccnc3)nc3cn[nH]c23)CC1` [Example 183]: below 10 nM. The same measure for `Cc1cc2nc(-n3ccnc3)nc(C(=O)N[C@H]3CC[C@H](C(C)(C)O)CC3)c2[nH]1` [Example 184]: below 10 nM; for `N#CC[C@H]1CC[C@H](NC(=O)c2nc(-n3ccnc3)nc3cc[nH]c23)CC1` [Example 185]: below 10 nM.

In turn, `O=C(N[C@H]1CC[C@@H](O)CC1)c1nc(-n2ccnc2)nc2cc[nH]c12` [Example 186] came in with an IC50 of 10 to 100 nM. The same measure for `COC(C)(C)[C@H]1CC[C@H](NC(=O)c2nc(-n3ccnc3)nc3cc[nH]c23)CC1` [Example 187]: 10 to 100 nM; for `O=C(N[C@H]1CC[C@@H](NCCC(F)(F)F)CC1)c1nc(-n2ccnc2)cc2cn[nH]c12` [Example 188, 5-(1H-imidazol-1-yl)-N-((1s,4s)-4-((3,3,3-trifluoropropyl)amino)cyclohexyl)-1H-pyrazolo[3,4-c]pyridine-7-carboxamide]: 100 to 1000 nM. The same measure for `O=C(N[C@H]1CC[C@H](NCCC(F)(F)F)CC1)c1nc(-n2ccnc2)cc2cn[nH]c12` [Example 189, 5-(1H-imidazol-1-yl)-N-((1r,4r)-4-((3,3,3-trifluoropropyl)amino)cyclohexyl)-1H-pyrazolo[3,4-c]pyridine-7-carboxamide]: 10 to 100 nM; for `CN(C)CC#Cc1ccc(NC(=O)c2nc(-n3ccnc3)nc3cc[nH]c23)cn1` [Example 190, N-(6-(3-(dimethylamino)prop-1-yn-1-yl)pyridin-3-yl)-2-(1H-imidazol-1-yl)-5H-pyrrolo[3,2-d]pyrimidine-4-carboxamide]: below 10 nM; for `O=C(N[C@H]1CC[C@H](NCC(F)(F)F)CC1)c1nc(-n2ccnc2)nc2cn[nH]c12` [Example 191, 5-(1H-imidazol-1-yl)-N-((1r,4r)-4-((2,2,2-trifluoroethyl)amino)cyclohexyl)-1H-pyrazolo[4,3-d]pyrimidine-7-carboxamide]: 10 to 100 nM.

Take `C[C@H](O)[C@H]1CC[C@H](NC(=O)c2nc(-n3ccnc3)cc3cn[nH]c23)CC1` [Example 192a, N-((1S,4r)-4-((S)-1-hydroxyethyl)cyclohexyl)-5-(1H-imidazol-1-yl)-1H-pyrazolo[3,4-c]pyridine-7-carboxamide]: the IC50 was below 10 nM.

With `C[C@@H](O)[C@H]1CC[C@H](NC(=O)c2nc(-n3ccnc3)cc3cn[nH]c23)CC1` [Example 192b, N-((1R,4r)-4-((R)-1-hydroxyethyl)cyclohexyl)-5-(1H-imidazol-1-yl)-1H-pyrazolo[3,4-c]pyridine-7-carboxamide], the IC50 was below 10 nM. The figure for `CC(F)(F)CN[C@H]1CC[C@H](NC(=O)c2nc(-n3ccnc3)cc3cn[nH]c23)CC1` [Example 193, N-((1r,4r)-4-((2,2-difluoropropyl)amino)cyclohexyl)-5-(1H-imidazol-1-yl)-1H-pyrazolo[3,4-c]pyridine-7-carboxamide] is 10 to 100 nM. The figure for `CC(F)(F)CN[C@H]1CC[C@@H](NC(=O)c2nc(-n3ccnc3)cc3cn[nH]c23)CC1` [Example 194, N-((1s,4s)-4-((2,2-difluoropropyl)amino)cyclohexyl)-5-(1H-imidazol-1-yl)-1H-pyrazolo[3,4-c]pyridine-7-carboxamide] is 100 to 1000 nM.

Regarding `O=C(N[C@H]1CC[C@H](NCC(F)F)CC1)c1nc(-n2ccnc2)cc2cn[nH]c12` [Example 195, N-((1r,4r)-4-((2,2-difluoroethyl)amino)cyclohexyl)-5-(1H-imidazol-1-yl)-1H-pyrazolo[3,4-c]pyridine-7-carboxamide], the half-inhibitory concentration (IC50) lay in the range of 10 to 100 nM. The same measure for `COCCO[C@H]1CC[C@H](NC(=O)c2nc(-n3ccnc3)cc3cn(C)nc23)CC1` [Example 196, 5-(1H-imidazol-1-yl)-N-((1r,4r)-4-(2-methoxyethoxy)cyclohexyl)-2-methyl-2H-pyrazolo[3,4-c]pyridine-7-carboxamide]: 10 to 100 nM; for `COCCO[C@H]1CC[C@H](NC(=O)c2nc(-n3ccnc3)cc3cnn(C)c23)CC1` [Example 197, 5-(1H-imidazol-1-yl)-N-((1r,4r)-4-(2-methoxyethoxy)cyclohexyl)-1-methyl-1H-pyrazolo[3,4-c]pyridine-7-carboxamide]: 10 to 100 nM. In turn, `COCCO[C@H]1CC[C@H](NC(=O)c2nc(-n3ccnc3)cc3ccsc23)CC1` [Example 198, 5-(1H-imidazol-1-yl)-N-((1r,4r)-4-(2-methoxyethoxy)cyclohexyl)thieno[2,3-c]pyridine-7-carboxamide] registered an IC50 of 10 to 100 nM.

The values above are taken from patent US11535621B2, “Heterobicyclic amides as inhibitors of CD38” (Ribon Therapeutics, Inc., priority 2019, dated 2022).
